From US20220348590A1, “CYCLOOXYGENASE-2 INHIBITORS AND USES THEREOF” (The Board Institute, Inc., priority 2019, published 2022)
In brackets after ≈: the same amount, converted by molar mass. Read-outs that look alike come from different tables or passages of the source.

Columns and labels:
ovine COX-1 (oCOX-1) = molecular target: T1, ovine COX-1 (oCOX-1) (Ovis aries, UniProt P05979); assay: LCMS-based COX-1 enzymatic inhibition assay (PGE2 quantification); assay type: biochemical
T1 construct: purchased Cayman Chemicals (Ann Arbor, Mich.)
T1 sequence (P05979 25-600): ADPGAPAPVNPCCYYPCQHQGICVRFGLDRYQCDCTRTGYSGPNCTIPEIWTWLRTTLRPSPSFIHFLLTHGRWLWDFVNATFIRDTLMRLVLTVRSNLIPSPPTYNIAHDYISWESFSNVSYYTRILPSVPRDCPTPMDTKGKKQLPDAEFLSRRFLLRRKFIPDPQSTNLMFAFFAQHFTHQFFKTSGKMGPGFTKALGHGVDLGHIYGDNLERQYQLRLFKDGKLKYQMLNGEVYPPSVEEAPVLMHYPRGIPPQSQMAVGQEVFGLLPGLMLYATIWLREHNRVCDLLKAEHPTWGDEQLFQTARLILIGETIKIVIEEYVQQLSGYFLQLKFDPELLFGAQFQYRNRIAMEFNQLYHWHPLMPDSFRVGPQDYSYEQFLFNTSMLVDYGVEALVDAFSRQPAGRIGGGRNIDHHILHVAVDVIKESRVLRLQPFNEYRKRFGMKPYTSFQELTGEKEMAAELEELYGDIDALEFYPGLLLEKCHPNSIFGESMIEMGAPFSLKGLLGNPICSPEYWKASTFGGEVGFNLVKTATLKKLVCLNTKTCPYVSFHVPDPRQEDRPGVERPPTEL
Method in brief: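 Ovine COX-1 (0.1 μg) or human recombinant COX2 (0.2 μg) in 100 mM Tris.HCl pH 8.0 with hematin and epinephrine, preincubated with inhibitor 10 min at 37 °C. Reaction with 5 μM arachidonic acid stopped after 2 min with HCl; PGE2 quantified by LC-MS-MS. IC50 from 12 concentrations in triplicate.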

[1] = mouse plasma protein binding (PPB) assay; assay type: in vitro ADME; settings: average, read-out: Mouse Plasma Protein Binding % Bound Avg (converted)
Experimental: (§1) We have adapted a previously reported cyclooxygenase enzymatic assay utilizing LCMS quantification of PGE2 as the product of COX-1 and COX2 catalyzed conversion of arachidonic acid to evaluate the binding properties of newly synthesized ligands [Cao, 2011]. These optimized and miniaturized (384-well plates) LCMS-based COX-1 and COX2 enzymatic assays enabled us to quickly evaluate newly synthesized ligands for COX2 binding affinity and selectivity vs COX-1. Using a shorter ligand-enzyme incubation time in the LCMS assay (2 minutes vs 10 minutes) also permitted us to prioritize ligands with faster binding kinetics. Considering the relatively slow on-rate kinetics of known coxibs, due to their 3-step binding mechanism [Marnett, 2009], we believe that optimizing this critical parameter will be key to the successful development of a COX2 PET tracer. Using these enzymatic assays, we have evaluated>200 newly synthesized ligands against COX2 and >20 ligands against COX-1. Another critical property necessary for a good PET radiotracer is to have low non-specific binding (NSB) to increase the free fraction and maximize the signal to noise ratio. This property can be evaluated using in-vitro protein binding assays, and we have now evaluated>50 newly synthesized ligands in mouse, rat and human plasma protein binding (PPB) assays as well as >15 ligands in a mouse brain protein binding (BPB) assay.

[2] = rat plasma protein binding (PPB) assay; assay type: in vitro ADME; settings: average, read-out: Rat Plasma Protein Binding % Bound Avg (converted)
Method in brief: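 Plasma (mouse, rat, human) and mouse brain protein binding were run in vitro, with the free fraction as the endpoint.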

[3] = human plasma protein binding (PPB) assay; assay type: in vitro ADME; settings: average, read-out: Human Plasma Protein Binding % Bound Avg (converted)
Experimental: as §1

PBS Solubility (no DMSO) = assay type: physicochemical; settings: aqueous buffer, thermodynamic from solid, average
[4] = Human Microsome Stability; assay type: in vitro ADME; settings: human microsomes
[5] = Mouse Plasma Protein Stability (% Remaining); assay type: in vitro ADME; settings: average
[6] = Rat Plasma Protein Stability (% Remaining); assay type: in vitro ADME; settings: average
[7] = 10 minutes, readout pge2/pge2d4 area ratio, average LLE
[8] = 10 minutes, readout pge2/pge2d4 area ratio, average, read-out: COX1 10 minutes pge2/pge2d4 area ratio Avg. IC50
[9] = 10 minutes, readout pge2 area (counts), average LLE
[10] = 10 minutes, readout pge2 area (counts), average, read-out: COX1 10 minutes pge2 area (counts) Avg. IC50

| SMILES | COX1 10 minutes pge2/pge2d4 area ratio Avg. LLE (ovine COX-1 (oCOX-1); [7]) | IC50 (ovine COX-1 (oCOX-1); [8]) [µM] | COX1 10 minutes pge2 area (counts) Avg. LLE (ovine COX-1 (oCOX-1); [9]) | IC50 (ovine COX-1 (oCOX-1); [10]) [µM] | fraction unbound [1] | fraction unbound [2] | fraction unbound [3] | solubility (PBS Solubility (no DMSO)) [µM] | Human Microsome Stability % Remaining Avg [4] [%] | Mouse Plasma Protein Stability % Remaining Avg [5] [%] | Rat Plasma Protein Stability % Remaining Avg [6] [%] | COX1 10 minutes pge2/pge2d4 area ratio Avg. LLE (ovine COX-1 (oCOX-1); 10 minutes, pge2/pge2d4 area ratio, head of this section not shown, inferred) | COX1 10 minutes pge2 area (counts) Avg. LLE (ovine COX-1 (oCOX-1); 10 minutes, pge2 area (counts), head of this section not shown, inferred) | IC50 (ovine COX-1 (oCOX-1); 10 minutes, pge2 area (counts), head of this section not shown, inferred, read-out: COX1 10 minutes pge2 area (counts) Avg. IC50) [µM] | IC50 (ovine COX-1 (oCOX-1)) [µM] |
| --- | --- | --- | --- | --- | --- | --- | --- | --- | --- | --- | --- | --- | --- | --- | --- |
| CS(=O)(=O)c1ccc(-c2cccc(OCc3cccs3)n2)cc1 [Compound 1, 2-(4-methanesulfonylphenyl)-6-[(thiophen-2-yl)methoxy]pyridine] | 1.251 | 11.5 | 1.136 | 13.8 | 0.004 | 0.006 | 0.002 | 1.1 (≈ 0.38 µg/mL) | 38 | 119.5 | 100 |  |  |  |  |
| CS(=O)(=O)c1ccc(-c2nc(NCc3cccs3)cc3ccoc23)cc1 [Compound 2] | −0.046 |  | −0.02512 | 49.6 | 0.004 | 0.009 | 0.003 | 0.31 (≈ 0.119 µg/mL) | 27 | 108 | 98 |  |  |  | 52 |
| CS(=O)(=O)c1ccc(-c2cc(F)cc(NCc3ccco3)n2)cc1 [Compound 14] | 1.4251 | 40.3 | 1.516 | 32.7 | 0.022 | 0.024 | 0.02 | 6.1 (≈ 2.11 µg/mL) | 21 | 99 | 104 |  |  |  |  |
| CS(=O)(=O)c1ccc(-c2ccc(F)c(NCc3ccco3)n2)cc1 [Compound 15] | 1.314 |  | 1.404 | 34.4 |  | 0.02 | 0.022 | 4.5 (≈ 1.56 µg/mL) | 45.5 |  | 127 |  |  |  | 52 |
| COc1ccc(NCc2cccs2)nc1-c1ccc(S(C)(=O)=O)cc1 [Compound 17] |  |  | 0.884 |  | 0.033 | 0.047 | 0.022 | 1.3 (≈ 0.487 µg/mL) |  | 102 | 100 |  |  |  |  |
| COc1ncc(NCc2ccoc2)nc1-c1ccc(S(C)(=O)=O)cc1 [Compound 44] | 2.274 |  | 2.41 | 38.1 | 0.045 | 0.044 |  | 28 (≈ 10.1 µg/mL) |  | 105.7 | 104.6 |  |  |  | 52 |

Now from value to compound, other results behind:

| COX1 10 minutes pge2/pge2d4 area ratio Avg. LLE (ovine COX-1 (oCOX-1); [7]) | IC50 (ovine COX-1 (oCOX-1); [8]) [µM] | COX1 10 minutes pge2 area (counts) Avg. LLE (ovine COX-1 (oCOX-1); [9]) | IC50 (ovine COX-1 (oCOX-1); [10]) [µM] | fraction unbound [1] | fraction unbound [2] | fraction unbound [3] | solubility (PBS Solubility (no DMSO)) [µM] | Human Microsome Stability % Remaining Avg [4] [%] | Mouse Plasma Protein Stability % Remaining Avg [5] [%] | Rat Plasma Protein Stability % Remaining Avg [6] [%] | COX1 10 minutes pge2/pge2d4 area ratio Avg. LLE (ovine COX-1 (oCOX-1); 10 minutes, pge2/pge2d4 area ratio, head of this section not shown, inferred) | COX1 10 minutes pge2 area (counts) Avg. LLE (ovine COX-1 (oCOX-1); 10 minutes, pge2 area (counts), head of this section not shown, inferred) | IC50 (ovine COX-1 (oCOX-1); 10 minutes, pge2 area (counts), head of this section not shown, inferred, read-out: COX1 10 minutes pge2 area (counts) Avg. IC50) [µM] | SMILES | IC50 (ovine COX-1 (oCOX-1)) [µM] |
| --- | --- | --- | --- | --- | --- | --- | --- | --- | --- | --- | --- | --- | --- | --- | --- |
| 2.582 | 10.4 | 2.539 | 10.9 | 0.02 | 0.015 | 0.015 | 5.8 (≈ 2.01 µg/mL) |  | 92.8 | 91.1 |  |  |  | CS(=O)(=O)c1ccc(-c2cncc(OCc3cccs3)n2)cc1 [Compound 19] |  |
| 1.391 | 28.7 | 1.134 |  |  | 0.042 | 0.026 | 18 (≈ 6.16 µg/mL) | 36 |  | 100 |  |  |  | Cc1occc1CNc1cccc(-c2ccc(S(C)(=O)=O)cc2)n1 [Compound 21] |  |
| 3.122 | 0.323 | 3.085 | 0.417 |  | 0.046 | 0.028 | 24 (≈ 8.31 µg/mL) | 11 |  | 104 |  |  |  | CS(=O)(=O)c1ccc(-c2cccc(NCc3ccc(F)o3)n2)cc1 [Compound 23] |  |
| 1.418 | 33.3 | 1.362 | 37.9 |  | 0.025 | 0.029 | 0.64 (≈ 0.222 µg/mL) | 40 |  | 128 |  |  |  | CS(=O)(=O)c1ccc(-c2ccc(F)c(NCc3ccoc3)n2)cc1 [Compound 33] |  |
| 1.4613 | 30.1 | 1.484 | 28.7 |  | 0.025 | 0.027 | 12 (≈ 4.16 µg/mL) | 48 |  | 115 |  |  |  | CS(=O)(=O)c1ccc(-c2cc(F)cc(NCc3ccoc3)n2)cc1 [Compound 34] |  |
| 1.091 | 32.3 | 0.9785 | 42 | 0.031 |  |  |  |  | 98.9 |  |  |  |  | COc1cc(NCc2cccs2)nc(-c2ccc(S(C)(=O)=O)cc2)c1 [Compound 50] |  |
|  | 9.89 |  |  |  |  |  |  | 23.8 |  |  | 2.943 | 2.879 | 10.7 | CS(=O)(=O)c1ccc(-c2cncc(NCc3cccs3)n2)cc1 [Compound 98] |  |
